Assay type in all cases: functional
The subject of test [1] is Neisseria meningitidis. Description: Antimicrobial activity against Neisseria meningitidis M7 by agar dilution method.
In test [2] the test system is Neisseria meningitidis. As to the kind of experiment: Antimicrobial activity against Neisseria meningitidis M7tolC::Kan by agar dilution method. In general terms: Agar dilution tests growth on a series of plates holding different concentrations.
Test [3] deals with Neisseria meningitidis. As to the kind of experiment: Antimicrobial activity against Neisseria meningitidis M7mtrE::Spc by agar dilution method.
In test [4] the test system is Neisseria meningitidis. As to the kind of experiment: Antimicrobial activity against Neisseria meningitidis M7tolC::Kan mtr::Spc by agar dilution method.
Test [5] relates to Escherichia coli. Description: Antimicrobial activity against Escherichia coli RAM4100 by agar dilution method.
The test system of test [6] is Escherichia coli. As to the kind of experiment: Antimicrobial activity against Escherichia coli RAM1129 by agar dilution method.
For test [7], the system named is Escherichia coli. Description: Antimicrobial activity against Escherichia cloi RAM1129 transfected with pGCC4 containg IPTG-inducible lacZ promoter by agar dilution method.
The test system of test [8] is Escherichia coli. Description: Antimicrobial activity against Escherichia cloi RAM1129 transfected with pNK1 containg Neisseria meningitidis tolC gene by agar dilution method.
In test [9] the test system is Escherichia coli. Description: Antimicrobial activity against Escherichia cloi RAM4100 transfected with pGCC4 containg IPTG-inducible lacZ promoter by agar dilution method.
In test [10] the test system is Escherichia coli. As to the kind of experiment: Antimicrobial activity against Escherichia cloi RAM4100 transfected with pNK1 containg Neisseria meningitidis tolC gene by agar dilution method.

≈ marks a conversion by molar mass, not a printed value. Where only a bound is given, the exact number is not on record here.

For the compound `CC[n+]1c(-c2ccccc2)c2cc(N)ccc2c2ccc(N)cc21.[Br-]` [HOMIDIUM BROMIDE], the MIC (as a rule, the lowest concentration found to suppress growth) in test [1] is 12 µg/mL; in test [2], 12 µg/mL; in test [3], 0.75 µg/mL; in test [4], 0.75 µg/mL; in test [5], > 200 µg/mL; in test [6] it was 5 µg/mL. The results for the MIC in [7] and in test [8] were 5 µg/mL and > 200 µg/mL, respectively.
For `CN(C)c1ccc(C(=C2C=CC(=[N+](C)C)C=C2)c2ccc(N(C)C)cc2)cc1.[Cl-]` [GENTIAN VIOLET], the MIC was > 40 µg/mL in test [5], 1.5 µg/mL in test [6], 1.5 µg/mL in test [7] and > 40 µg/mL in [8].
Turning to `CC[C@H]1OC(=O)[C@H](C)[C@@H](O[C@H]2C[C@@](C)(OC)[C@@H](O)[C@H](C)O2)[C@H](C)[C@@H](O[C@@H]2O[C@H](C)C[C@H](N(C)C)[C@H]2O)[C@](C)(O)C[C@@H](C)C(=O)[C@H](C)[C@@H](O)[C@]1(C)O` [ERYTHROMYCIN], the MIC in [7] amounted to 5 µg/mL (≈ 6.81 µM); in test [8] it was 5 µg/mL (≈ 6.81 µM); in test [9], 300 µg/mL (≈ 409 µM); in test [10], 300 µg/mL (≈ 409 µM).
For the compound `CC[C@H](C)[C@H](NC(=O)[C@H](CCCCN)NC(=O)[C@H](CCC(=O)O)NC(=O)[C@H](CCCCN)NC(=O)[C@H](CO)NC(=O)[C@H](CCCCN)NC(=O)[C@H](CCCNC(=N)N)NC(=O)[C@H](Cc1ccccc1)NC(=O)[C@H](Cc1ccccc1)NC(=O)[C@H](CC(=O)O)NC(=O)CNC(=O)[C@H](CC(C)C)NC(=O)[C@@H](N)CC(C)C)C(=O)NCC(=O)N[C@@H](CCCCN)C(=O)N[C@@H](CCC(=O)O)C(=O)N[C@@H](Cc1ccccc1)C(=O)N[C@@H](CCCCN)C(=O)N[C@@H](CCCNC(=N)N)C(=O)N[C@H](C(=O)N[C@H](C(=O)N[C@@H](CCC(N)=O)C(=O)N[C@@H](CCCNC(=N)N)C(=O)N[C@H](C(=O)N[C@@H](CCCCN)C(=O)N[C@@H](CC(=O)O)C(=O)N[C@@H](Cc1ccccc1)C(=O)N[C@@H](CC(C)C)C(=O)N[C@@H](CCCNC(=N)N)C(=O)N[C@@H](CC(N)=O)C(=O)N[C@@H](CC(C)C)C(=O)N[C@H](C(=O)N1CCC[C@H]1C(=O)N[C@@H](CCCNC(=N)N)C(=O)N[C@H](C(=O)N[C@@H](CCC(=O)O)C(=O)N[C@@H](CO)C(=O)O)[C@@H](C)O)C(C)C)[C@@H](C)CC)C(C)C)[C@@H](C)CC` [CATHELICIDIN], the MIC in test [1] came out at 7.8 µg/mL (≈ 1.74 µM); in test [2], 7.8 µg/mL (≈ 1.74 µM); in test [3], 1.98 µg/mL (≈ 0.441 µM); in [4], 1.98 µg/mL (≈ 0.441 µM).
Take `O=C(O)c1cn(C2CC2)c2cc(N3CCNCC3)c(F)cc2c1=O` [CIPROFLOXACIN]: the MIC in [1], in [2], in test [3] and in test [4] was 0.02 µg/mL (≈ 0.0604 µM) each time.
As to `CCCCCCCCCCCCCCCC(=O)O` [PALMITIC ACID], the minimum inhibitory concentration (MIC) in test [1] amounted to 400 µg/mL (≈ 1560 µM); in test [2] it was 400 µg/mL (≈ 1560 µM); in [3], 50 µg/mL (≈ 195 µM); in test [4] it was 50 µg/mL (≈ 195 µM).
As for `CC[C@H]1OC(=O)[C@H](C)[C@@H](O[C@H]2C[C@@](C)(OC)[C@@H](O)[C@H](C)O2)[C@H](C)[C@@H](O[C@@H]2O[C@H](C)C[C@H](N(C)C)[C@H]2O)[C@](C)(O)C[C@@H](C)CN(C)[C@H](C)[C@@H](O)[C@]1(C)O` [AZITHROMYCIN], the MIC in test [1] was found to be 2 µg/mL (≈ 2.67 µM); in test [2] it was 2 µg/mL (≈ 2.67 µM); in test [3] it was 0.125 µg/mL (≈ 0.167 µM); in test [4] it was 0.125 µg/mL (≈ 0.167 µM).
On to `CO[C@@H]1[C@@H](OC(N)=O)[C@@H](O)[C@H](Oc2ccc3c(O)c(NC(=O)c4ccc(O)c(CC=C(C)C)c4)c(=O)oc3c2C)OC1(C)C` [NOVOBIOCIN], for which the minimal inhibitory concentration (MIC) is 500 µg/mL (≈ 816 µM) in test [5], 40 µg/mL (≈ 65.3 µM) in [6], 40 µg/mL (≈ 65.3 µM) in [7] and 500 µg/mL (≈ 816 µM) in test [8].

The record behind these values is ChEMBL document CHEMBL1212761, “Biologic activities of the TolC-like protein of Neisseria meningitidis as assessed by functional complementation in Escherichia coli” (2010).
